Test results from patent US20100267712A1, “ISOINDOLINE COMPOUNDS FOR THE TREATMENT OF SPINAL MUSCULAR ATROPHY AND OTHER USES” (The United States of America, as represented by the …, priority 2007, published 2010).
Counter-ions that a name gives are not always drawn.

system: SMN-containing gems in type 1 SMA patient fibroblasts (3813 cells); test: SMN-containing gem count in SMA patient fibroblasts; type: cell-based, human; details: 1 μM compound, 48 hours, 3813 fibroblasts
Text: SMN protein can be found in punctate nuclear particles called “gems” (Liu and Dreyfuss, EMBO J, 15 (14): 3555-3565 (1996)). In fibroblast cells derived from SMA patients, the number of gems corresponds to disease severity as follows: severe type 1 patients have approximately 5 gems per 100 nuclei; mild type 3 patients have 20-50 gems per 100 nuclei; normal individuals have approximately 100-150 gems per 100 nuclei (Coovert et al., Hum Mol Genet, 6 (8): 1205-1214 (1997), Young et al., Exp Cell Res, 265 (2): 252-261 (2001)).
Gems are detectable by immunohistochemistry and gem counts in patient fibroblasts have been used to test the ability of compounds to increase SMN protein levels (Mattis et al., Hum Genet, 120: 589-601 (2006)). Following these methods, fibroblast cells from a type 1 SMA patient (3813 cells, Coriell Cell Repositories) were treated for 48 hours with a compound of the invention. The cells were then fixed and incubated with a monoclonal antibody against SMN (4B7, Wolstencroft et al., Hum Mol Genet, 14: 1199-1210 (2005)). A FITC-conjugated anti-mouse secondary antibody was used to visualize the labeled gems. A positive control in these experiments was provided by fibroblasts from the same patient treated with 1000 μM valproic acid.

For `Cn1ccc2ccc(N3Cc4ccc(N5CCCC5)cc4C3=O)cc21` [Example 124596], the “Average number of gems per 100 nuclei” value was 43.

system: not given; test: not given; details: not given

`CCOc1ccc2c(c1)C(=O)N(c1ccc3c(ccn3C)c1)C2` [Example 6, 6-ethoxy-2-(1-methyl-1H-indol-5-yl)isoindolin-1-one] and `Cn1ccc2cc(N3Cc4ccc(OCC(F)(F)F)cc4C3=O)ccc21` [Example 7, 2-(1-methyl-1H-indol-5-yl)-6-(2,2,2-trifluoroethoxy)isoindolin-1-one] cannot be ordered by melting point: 185 to 190 °C for the first, 182 to 188 °C for the second.

First: COc1ccc2c(c1)C(=O)N(c1ccc3ccoc3c1)C2 [Example 48, 2-(benzofuran-6-yl)-6-methoxyisoindolin-1-one]
Second: COc1ccc2c(c1)C(=O)N(c1ccc3ccn(C)c3c1)C2 [Example 20, 6-methoxy-2-(1-methyl-1H-indol-6-yl)isoindolin-1-one]
The melting point of the first is lower: 141 to 143 °C for the first, 158 to 161 °C for the second.

First: COc1ccc2c(c1)C(=O)N(c1ccc3cnn(C)c3c1)C2
Second: COc1ccc2c(c1)C(=O)N(c1ccc3c(cnn3C)c1)C2 [Example 44, 6-methoxy-2-(1-methyl-1H-indazol-5-yl)isoindolin-1-one]
The melting point of the first is lower: 175 to 177 °C for the first, 213 to 214 °C for the second.

First: COc1ccc2c(c1)C(=O)N(c1ccc3[nH]c(=O)ccc3c1)C2 [Example 34, 6-(6-methoxy-1-oxoisoindolin-2-yl)quinolin-2(1H)-one]
Second: COc1ccc2c(c1)C(=O)N(c1ccc3cccnc3c1)C2 [Example 51, 6-methoxy-2-(quinolin-7-yl)isoindolin-1-one]
The melting point of the first is higher: 305 to 310 °C for the first, 220 to 223 °C for the second.

First: COc1ccc2c(c1)CN(c1ccc3c(ccn3C)c1)C2 [Example 19, 5-(5-methoxyisoindolin-2-yl)-1-methyl-1H-indole]
Second: COc1ccc2c(c1)C(=O)N(c1ccc3c(ccn3C(C)C)c1)C2 [Example 17, 2-(1-isopropyl-1H-indol-5-yl)-6-methoxyisoindolin-1-one]
The melting point of the first is higher: 193 to 196 °C for the first, 144 to 148 °C for the second.

First: O=C1c2cc(O)ccc2CN1c1ccc2sccc2c1 [Example 26, 2-(benzo[b]thiophen-5-yl)-6-hydroxyisoindolin-1-one]
Second: COc1ccc2c(c1)CN(c1ccc3sccc3c1)C2=O [Example 25, 2-(benzo[b]thiophen-5-yl)-5-methoxyisoindolin-1-one]
The melting point of the first is higher: 226 to 228 °C for the first, 183 to 186 °C for the second.

First: COc1ccc2c(c1)C(=O)N(c1ccc(C(C)C)cn1)C2 [Example 39, 2-(5-isopropylpyridin-2-yl)-6-methoxyisoindolin-1-one]
Second: COc1ccc2c(c1)C(=O)N(c1cc3ccn(C)c3cn1)C2 [Example 42, 6-methoxy-2-(1-methyl-1H-pyrrolo[2,3-c]pyridin-5-yl)isoindolin-1-one]
The melting point of the first is lower: 109 to 110 °C for the first, 205 to 210 °C for the second.

First: COc1ccc2c(c1)C(=O)N(c1ccc3c(c1)NCCN3)C2 [Example 37, 6-methoxy-2-(1,2,3,4-tetrahydroquinoxalin-6-yl)isoindolin-1-one]
Second: COc1ccc2c(c1)C(=O)N(c1ccc3c(c1)CCCN3C)C2 [Example 45, 6-methoxy-2-(1-methyl-1,2,3,4-tetrahydroquinolin-6-yl)isoindolin-1-one]
The melting point of the first is higher: 159 to 163 °C for the first, 123 to 127 °C for the second.

First: COc1ccc2c(c1)C(=O)N(c1ccc3ncsc3c1)C2 [Example 47, 2-(benzo[d]thiazol-6-yl)-6-methoxyisoindolin-1-one]
Second: COc1ccc2c(c1)C(=O)N(c1ccc3nc(C)ncc3c1)C2 [Example 49, 6-methoxy-2-(2-methylquinazolin-6-yl)isoindolin-1-one]
The melting point of the first is lower: 204 to 207 °C for the first, 245 to 247 °C for the second.

First: COc1ccc2c(c1)C(=O)N(c1ccc3c(c1)n(C)c(=O)n3C)C2 [Example 36, 5-(6-methoxy-1-oxoisoindolin-2-yl)-1,3-dimethyl-1H-benzo[d]imidazol-2(3H)-one]
Second: COc1ccc2c(c1)C(=O)N(c1ccc3c(c1)cc(C)n3C)C2 [Example 18, 2-(1,2-dimethyl-1H-indol-5-yl)-6-methoxyisoindolin-1-one]
The melting point of the first is higher: 268 to 270 °C for the first, 209 to 213 °C for the second.

Compared with `COc1ccc2c(c1)C(=O)N(c1cnc3c(ccn3C)c1)C2` [Example 43, 6-methoxy-2-(1-methyl-1H-pyrrolo[2,3-b]pyridin-5-yl)isoindolin-1-one], `Cn1ccc2cc(N3Cc4ccc(OC(F)F)cc4C3=O)ccc21` [Example 2, 6-(difluoromethoxy)-2-(1-methyl-1H-indol-5-yl)isoindolin-1-one] is lower in melting point: 198 to 199 °C for the first, 180 to 182 °C for the second.

Compared with `Cn1ccc2cc(N3Cc4ccc(OC(F)(F)Br)cc4C3=O)ccc21` [Example 3, 6-(bromodifluoromethoxy)-2-(1-methyl-1H-indol-5-yl)isoindolinl-one], `Cn1ccc2cc(N3Cc4ccc(OC(F)(F)C(F)Cl)cc4C3=O)ccc21` (stereo not drawn) [Example 4, 6-(2-chloro-1,1,2-trifluoroethoxy)-2-(1-methyl-1H-indol-5-yl)isoindolin-1-one] is higher in melting point: 185 to 186 °C for the first, 200 to 205 °C for the second.

Compared with `C/C=C(/C)c1ccc2c(c1)C(=O)N(c1ccc3c(ccn3C)c1)C2` [Example 14, (Z)-6-(but-2-en-2-yl)-2-(1-methyl-1H-indol-5-yl)isoindolin-1-one], `Cn1ccc2cc(N3Cc4ccc(O)cc4C3=O)ccc21` [Example 5, 6-hydroxy-2-(1-methyl-1H-indol-5-yl)isoindolin-1-one] is higher in melting point: 144 to 145 °C for the first, 230 to 235 °C for the second.

`O=C1c2cc(OC(F)F)ccc2CN1c1ccc2c(c1)CCC2` [Example 50, 6-(difluoromethoxy)-2-(2,3-dihydro-1H-inden-5-yl)isoindolin-1-one] and `COc1ccc2c(c1)C(=O)N(c1ccc3c(c1)N(C)CCN3C)C2` [Example 38, 2-(1,4-dimethyl-1,2,3,4-tetrahydroquinoxalin-6-yl)-6-methoxyisoindolin-1-one] cannot be ordered by melting point: 137 to 139 °C for the first, 137 to 142 °C for the second.

First: O=C1c2ccccc2CN1c1ccc2c(c1)OCCO2 [Example 46, 2-(2,3-dihydrobenzo[b][1,4]dioxin-6-yl)isoindolin-1-one]
Second: CN(C)c1ccc2c(c1)C(=O)N(c1ccc3ccsc3c1)C2 [Example 30, 2-(benzo[b]thiophen-6-yl)-6-(dimethylamino)isoindolin-1-one]
The melting point of the first is lower: 170 to 176 °C for the first, 195 to 197 °C for the second.

First: Cn1ccc2ccc(N3Cc4ccc(-c5cccnc5)cc4C3=O)cc21 [Example 24, 2-(1-methyl-1H-indol-6-yl)-6-(pyridin-3-yl)isoindolin-1-one]
Second: Cn1ccc2cc(N3Cc4ccc(Br)cc4C3=O)ccc21 [Example 11, 6-bromo-2-(1-methyl-1H-indol-5-yl)isoindolin-1-one]
The melting point of the first is lower: 187 to 188 °C for the first, 235 to 237 °C for the second.

Compared with `CC(=O)Nc1ccc2c(c1)C(=O)N(c1ccc3c(ccn3C)c1)C2` [Example 8, N-(2-(1-methyl-1H-indol-5-yl)-3-oxoisoindolin-5-yl)acetamide], `CC(=O)Nc1cccc2c1CN(c1ccc3c(ccn3C)c1)C2=O` [Example 10, N-(2-(1-methyl-1H-indol-5-yl)-1-oxoisoindolin-4-yl)acetamide] is lower in melting point: 275 to 280 °C for the first, 239 to 243 °C for the second.

First: CN(C)c1ccc2c(c1)C(=O)N(c1ccc3c(c1)CCN3C)C2 [Example 31, 6-(dimethylamino)-2-(1-methylindolin-5-yl)isoindolin-1-one]
Second: Cn1ccc2cc(N3Cc4ccc(N5CCCC5)cc4C3=O)ccc21 [Example 16, 2-(1-methyl-1H-indol-5-yl)-6-(pyrrolidin-1-yl)isoindolin-1-one]
The melting point of the first is higher: 268 to 270 °C for the first, 252 to 253 °C for the second.

Compared with `COc1ccc2c(c1)C(=O)N(c1ccc3ccn(CC#N)c3c1)C2` [Example 22, 2-(6-(6-methoxy-1-oxoisoindolin-2-yl)-1H-indol-1-yl)acetonitrile], `COc1ccc2c(c1)C(=O)N(c1ccc3c(ccc[n+]3[O-])c1)C2` [Example 33, 6-(6-methoxy-1-oxoisoindolin-2-yl)quinoline 1-oxide] is higher in melting point: 218 to 220 °C for the first, 251 to 255 °C for the second.

First: CC(=O)Nc1cccc2c1CN(c1ccc3ccn(C)c3c1)C2=O [Example 21, N-(2-(1-methyl-1H-indol-6-yl)-1-oxoisoindolin-4-yl)acetamide]
Second: Cn1ccc2cc(N3Cc4c(N)cccc4C3=O)ccc21 [Example 9, 4-amino-2-(1-methyl-1H-indol-5-yl)isoindolin-1-one]
The melting point of the first is lower: 180 to 184 °C for the first, 198 to 203 °C for the second.

For `COc1ccc2c(c1)C(=O)N(c1ccc3ccn(CCN)c3c1)C2` (as salt: hydrochloride) [Example 23, 2-(1-(2-aminoethyl)-1H-indol-6-yl)-6-methoxyisoindolin-1-one hydrochloride], the melting point was 280 to 282 °C (dec.).
With `COc1ccc2c(c1)C(=O)N(c1ccc3[nH]c(=O)[nH]c3c1)C2` [Example 35, 5-(6-methoxy-1-oxoisoindolin-2-yl)-1H-benzo[d]imidazol-2(3H)-one] the melting point was 355 to 360 °C (dec.).

system: SMN2-linked luciferase-reporter gene construct; test: SMN Splice Reporter Assay (SMN2-linked luciferase reporter); type: cell-based; details: cervical carcinoma cell lines, SMN2 splice luciferase reporter
Summary of the method: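 Cervical carcinoma cells carrying an SMN2-luciferase splicing reporter, in-frame only with exon 7 inclusion, were treated with compound. Luciferase activity reported as fold increase over untreated transformed cells, with EC50 derived.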

`Cn1ccc2ccc(N3Cc4ccc(N5CCCC5)cc4C3=O)cc21` [Example 124596] showed an EC50 of 0.047 µM.

same assay, conditions: fold-increase of luciferase over baseline reading of transformed cells without any test compound

In the case of `Cn1ccc2ccc(N3Cc4ccc(N5CCCC5)cc4C3=O)cc21` [Example 124596], the “Fold Increase” value is reported as 1.681.
